Measurements from patent publication US20200283384A1, “ANTIBACTERIAL COMPOUNDS AND METHODS OF USE THEREOF” (Wayne State University, priority 2016, published 2020).
Values after ≈ are worked out from the molar mass of the structure shown.

How the values were obtained:
Format in all cases: cell-based, Staphylococcus aureus
[1] = test system: Methicillin-resistant S. aureus strains; S. aureus (K1902); assay: MIC and SIC in 96 well microplates (plasmid curing study)
Procedure: Plasmid curing activity of HN18 and HN34 was evaluated. Methicillin-resistant S. aureus strains were sub-cultured on blood agar plates to obtain isolated colonies, incubated at 35° C. in a CO2 incubator. The fresh overnight bacterial inoculum was prepared by re-suspending a few isolated colonies in a tube containing 5 ml of saline. […] The sub-inhibitory concentration (SIC) is defined as the concentration before MIC (in a serial dilution method where antibiotic concentration decreases by half from each tube to the next one).
(§1) Plasmid curing activity of HN18 and HN34 was also evaluated in S. aureus (K1902) which is known to harbor a 5 kb plasmid with a chloramphenicol resistance gene. Along with the KSA reference strain, the plasmid curing activity was repeated for SA1 and SA2 strains which are MRSA (Table 4).

[2] = test system: methicillin-resistant S. aureus clinical isolates (MRSA); S. aureus (K1902); assay: Plasmid curing at sub-inhibitory concentration; settings: for Plasmid band in agarose gel of cured derivatives: S. aureus K1902, FIG. 3; for Susceptibility of isolates after exposure to SIC: SA1 and SA2 to oxacillin, KSA to chloramphenicol
Procedure: Plasmid curing was performed per Trevors (Trevors, 1986 Plasmid curing in bacteria. FEMS Microbiology, 32: 149-157). In brief, the clinical isolate was grown in the presence of HN18 and HN34 at the specified concentration for 18 h at 35° C. and then plated on Muller Hinton agar (MHA) plates to obtain isolated colonies. The isolated colonies were then replica plated onto MHA and MHA plates containing antibiotics. […] The percentage curing efficiency was expressed as the number of colonies with cured phenotype per 100 colonies tested. For plasmid extraction, 5 ml of an overnight culture of S. aureus strain was centrifuged and cells were subjected to 1 ml lysostaphin (20 μg/ml) for 1 hour at 35° C. prior to DNA extraction. Extraction of DNA was carried using QIAprep Spin Miniprep Kit (Qiagen) per manufacturer's instruction. DNA profile analysis was carried out by electrophoresis on 1.5% agarose gel.
The methicillin-resistant S. aureus clinical isolates (MRSA) growing in the presence of sub-inhibitory concentrations of HN18 and HN34 were taken for the evaluation for the loss of plasmids as described above. A culture control without a curing agent was also maintained in the curing experiment to estimate the rate of spontaneous loss of plasmids under these conditions. HN18 and HN34 eliminated the plasmid mediated antibiotic resistance markers with varying curing efficiencies (Table 3). HN18 cured plasmids from SA1, SA2, SA7 and SA8 at frequency in the range of 13-100%. HN34 also cured plasmids from SA1, SA2, SA7 and SA8 strains with 30%-100% curing efficiency.
as §1

[3] = test system: S. aureus clinical isolates; assay: Synergistic effect with oxacillin (oxacillin MIC alone and in presence of SIC); settings: for Synergistic activity in combination with oxacillin: S. aureus clinical isolates, compound at SIC
Procedure: The synergistic effect (interaction) of HN18 and HN34 with different antibiotics against S. aureus clinical isolates was studied. The oxacillin MIC values of 8 clinical isolates of Staphylococcus aureus were determined. The oxacillin MIC of the same isolates were also determined after they were exposed to SIC of HN18, HN34 (Table 5). […] Column 2 and 3 show the oxacillin MIC value of the same isolates in presence of SIC of HN18 and HN34 respectively.

[4] = Table 4, KSA (S. aureus K1902), experiment I
[5] = Table 4, KSA (S. aureus K1902), experiment II
[6] = Table 4, isolate SA1, experiment I
[7] = Table 4, isolate SA1, experiment II
[8] = Table 4, isolate SA2, experiment I
[9] = Table 4, isolate SA2, experiment II
[10] = Table 3, isolate SA1, at SIC, lack of growth in presence of M, Ox (4 μg/ml)
[11] = Table 3, isolate SA2, at SIC, lack of growth in presence of M, Ox (4 μg/ml)
[12] = Table 3, isolate SA3, at SIC, lack of growth in presence of M, Ox (4 μg/ml)
[13] = Table 3, isolate SA4, at SIC, lack of growth in presence of M, Ox (4 μg/ml)
[14] = Table 3, isolate SA5, at SIC, lack of growth in presence of M, Ox (4 μg/ml)
[15] = Table 3, isolate SA6, at SIC, lack of growth in presence of M, Ox (4 μg/ml)
[16] = Table 3, isolate SA7, at SIC, lack of growth in presence of M, Ox (4 μg/ml)
[17] = Table 3, isolate SA8, at SIC, lack of growth in presence of M, Ox (4 μg/ml)
[18] = Table 4, KSA (S. aureus K1902), experiment I, lack of growth in presence of Cm (10 μg/ml)
[19] = Table 4, KSA (S. aureus K1902), experiment II, lack of growth in presence of Cm (10 μg/ml)
[20] = Table 4, isolate SA1, experiment I, lack of growth in presence of M, Ox (4 μg/ml)
[21] = Table 4, isolate SA2, experiment I, lack of growth in presence of M, Ox (4 μg/ml)

Structure (SMILES): Cc1[nH]c2ccccc2c1C(c1ccc(F)c(F)c1)c1c(C)[nH]c2ccccc12 [HN34]
- SIC ([1]; Table 3, isolate SA1 (MRSA)): 1 µg/mL
- SIC ([1]; Table 3, isolate SA2 (MRSA)): 1 µg/mL
- SIC ([1]; Table 3, isolate SA3 (MRSA)): 1 µg/mL
- SIC ([1]; Table 3, isolate SA4 (MRSA)): 1 µg/mL
- SIC ([1]; Table 3, isolate SA5 (MRSA)): 1 µg/mL
- SIC ([1]; Table 3, isolate SA6 (MRSA)): 0.5 µg/mL
- SIC ([1]; Table 3, isolate SA7 (MRSA)): 0.5 µg/mL
- SIC ([1]; Table 3, isolate SA8 (MRSA)): 1 µg/mL
- MIC [1, 4]: 2 µg/mL (≈ 5.18 µM)
- SIC [1, 4]: 1 µg/mL
- MIC [1, 5]: 2 µg/mL (≈ 5.18 µM)
- SIC [1, 5]: 1 µg/mL
- SIC [1, 6]: 1 µg/mL
- MIC [1, 7]: 2 µg/mL (≈ 5.18 µM)
- SIC [1, 7]: 1 µg/mL
- MIC [1, 8]: 2 µg/mL (≈ 5.18 µM)
- SIC [1, 8]: 1 µg/mL
- MIC [1, 9]: 2 µg/mL (≈ 5.18 µM)
- SIC [1, 9]: 1 µg/mL
- Plasmid band in agarose gel of cured derivatives [2]: absent
- Susceptibility of isolates after exposure to SIC [2]: became susceptible
- Curing efficiency I [2, 10]: 100%
- Curing efficiency II [2, 10]: 100%
- Curing efficiency I [2, 11]: 100%
- Curing efficiency II [2, 11]: 70%
- Curing efficiency I [2, 12]: 0%
- Curing efficiency II [2, 12]: 0%
- Curing efficiency I [2, 13]: 100%
- Curing efficiency II [2, 13]: 0%
- Curing efficiency I [2, 14]: 0%
- Curing efficiency II [2, 14]: 0%
- Curing efficiency I [2, 15]: 0%
- Curing efficiency II [2, 15]: 0%
- Curing efficiency I [2, 16]: 50%
- Curing efficiency II [2, 16]: 30%
- Curing efficiency I [2, 17]: 40%
- Curing efficiency II [2, 17]: 63.33%
- Curing efficiency (%) [2, 18]: 33.3%
- Curing efficiency (%) [2, 19]: 50%
- Curing efficiency (%) [2, 20]: 100%
- Curing efficiency (%) [2, 21]: 96.6%
- Synergistic activity in combination with oxacillin [3]: did not show synergistic activity
- Oxacillin MIC in presence of SIC of the compound (1 μg/ml) ([3]; isolate SA3, experiment I): >16 µg/mL
- Oxacillin MIC in presence of SIC of the compound (1 μg/ml) ([3]; isolate SA3, experiment II): >16 µg/mL
- Oxacillin MIC in presence of SIC of the compound (1 μg/ml) ([3]; isolate SA4, experiment I): >16 µg/mL
- Oxacillin MIC in presence of SIC of the compound (1 μg/ml) ([3]; isolate SA4, experiment II): >16 µg/mL
- Oxacillin MIC in presence of SIC of the compound (1 μg/ml) ([3]; isolate SA5, experiment I): 16 µg/mL
- Oxacillin MIC in presence of SIC of the compound (1 μg/ml) ([3]; isolate SA5, experiment II): >16 µg/mL
- Oxacillin MIC in presence of SIC of the compound (1 μg/ml) ([3]; isolate SA9, experiment I): >16 µg/mL
- Oxacillin MIC in presence of SIC of the compound (1 μg/ml) ([3]; isolate SA9, experiment II): >16 µg/mL
- Oxacillin MIC in presence of SIC of the compound (1 μg/ml) ([3]; isolate SA10, experiment I): 16 µg/mL
- Oxacillin MIC in presence of SIC of the compound (1 μg/ml) ([3]; isolate SA10, experiment II): 16 µg/mL
- Oxacillin MIC in presence of SIC of the compound (1 μg/ml) ([3]; isolate SA11, experiment I): 16 µg/mL
- Oxacillin MIC in presence of SIC of the compound (1 μg/ml) ([3]; isolate SA11, experiment II): 8 µg/mL
- Oxacillin MIC in presence of SIC of the compound (1 μg/ml) ([3]; isolate SA15, experiment I): 16 µg/mL
- Oxacillin MIC in presence of SIC of the compound (1 μg/ml) ([3]; isolate SA15, experiment II): >16 µg/mL
- Oxacillin MIC in presence of SIC of the compound (1 μg/ml) ([3]; isolate SA18, experiment I): >16 µg/mL
- Oxacillin MIC in presence of SIC of the compound (1 μg/ml) ([3]; isolate SA18, experiment II): >16 µg/mL

Structure (SMILES): Fc1ccc(C(C2=CNC3C=CC=CC23)C2=C3C=CC=CC3NC2)cc1F (stereo not drawn) [HN18, 3-((3,4-difluorophenyl)(2,7a-dihydro-1H-indol-3-yl)methyl)-3a,7a-dihydro-1H-indole]
- SIC ([1]; Table 3, isolate SA1 (MRSA)): 0.5 µg/mL
- SIC ([1]; Table 3, isolate SA2 (MRSA)): 1.0 µg/mL
- SIC ([1]; Table 3, isolate SA3 (MRSA)): 1.0 µg/mL
- SIC ([1]; Table 3, isolate SA4 (MRSA)): 0.5 µg/mL
- SIC ([1]; Table 3, isolate SA5 (MRSA)): 1.0 µg/mL
- SIC ([1]; Table 3, isolate SA6 (MRSA)): 0.5 µg/mL
- SIC ([1]; Table 3, isolate SA7 (MRSA)): 0.5 µg/mL
- SIC ([1]; Table 3, isolate SA8 (MRSA)): 1.0 µg/mL
- MIC [1, 4]: 2 µg/mL (≈ 5.52 µM)
- SIC [1, 4]: 1 µg/mL
- MIC [1, 5]: 2 µg/mL (≈ 5.52 µM)
- SIC [1, 5]: 1 µg/mL
- MIC [1, 6]: 2 µg/mL (≈ 5.52 µM)
- SIC [1, 6]: 1 µg/mL
- MIC [1, 7]: 2 µg/mL (≈ 5.52 µM)
- SIC [1, 7]: 1 µg/mL
- SIC [1, 8]: 1 µg/mL
- MIC [1, 9]: 2 µg/mL (≈ 5.52 µM)
- SIC [1, 9]: 1 µg/mL
- Plasmid band in agarose gel of cured derivatives [2]: absent
- Susceptibility of isolates after exposure to SIC [2]: became susceptible
- Curing efficiency I [2, 10]: 0%
- Curing efficiency II [2, 10]: 100%
- Curing efficiency I [2, 11]: 100%
- Curing efficiency II [2, 11]: 50%
- Curing efficiency I [2, 12]: 0%
- Curing efficiency II [2, 12]: 0%
- Curing efficiency I [2, 13]: 100%
- Curing efficiency II [2, 13]: 0%
- Curing efficiency I [2, 14]: 0%
- Curing efficiency II [2, 14]: 0%
- Curing efficiency I [2, 15]: 0%
- Curing efficiency II [2, 15]: 0%
- Curing efficiency I [2, 16]: 23%
- Curing efficiency II [2, 16]: 90%
- Curing efficiency I [2, 17]: 13%
- Curing efficiency II [2, 17]: 70%
- Curing efficiency (%) [2, 18]: 36.6%
- Curing efficiency (%) [2, 19]: 46.6%
- Curing efficiency (%) [2, 20]: 63.3%
- Curing efficiency (%) [2, 21]: 100%
- Plasmid curing frequency / curing efficiency ([2]; range over SA1, SA2, SA7 and SA8): 13-100%
- Synergistic activity in combination with oxacillin [3]: decrease in the oxacillin MIC
- Oxacillin MIC in presence of SIC of the compound (1 μg/ml) ([3]; isolate SA3, experiment I): 0.5 µg/mL
- Oxacillin MIC in presence of SIC of the compound (1 μg/ml) ([3]; isolate SA3, experiment II): 0.5 µg/mL
- Oxacillin MIC in presence of SIC of the compound (1 μg/ml) ([3]; isolate SA4, experiment I): 0.5 µg/mL
- Oxacillin MIC in presence of SIC of the compound (1 μg/ml) ([3]; isolate SA4, experiment II): 1 µg/mL
- Oxacillin MIC in presence of SIC of the compound (1 μg/ml) ([3]; isolate SA5, experiment I): 0.03 µg/mL
- Oxacillin MIC in presence of SIC of the compound (1 μg/ml) ([3]; isolate SA5, experiment II): 0.03 µg/mL
- Oxacillin MIC in presence of SIC of the compound (1 μg/ml) ([3]; isolate SA9, experiment I): 2 µg/mL
- Oxacillin MIC in presence of SIC of the compound (1 μg/ml) ([3]; isolate SA9, experiment II): 4 µg/mL
- Oxacillin MIC in presence of SIC of the compound (1 μg/ml) ([3]; isolate SA10, experiment I): <0.03 µg/mL
- Oxacillin MIC in presence of SIC of the compound (1 μg/ml) ([3]; isolate SA10, experiment II): <0.03 µg/mL
- Oxacillin MIC in presence of SIC of the compound (1 μg/ml) ([3]; isolate SA11, experiment I): <0.03 µg/mL
- Oxacillin MIC in presence of SIC of the compound (1 μg/ml) ([3]; isolate SA11, experiment II): <0.03 µg/mL
- Oxacillin MIC in presence of SIC of the compound (1 μg/ml) ([3]; isolate SA15, experiment I): <0.03 µg/mL
- Oxacillin MIC in presence of SIC of the compound (1 μg/ml) ([3]; isolate SA15, experiment II): <0.03 µg/mL
- Oxacillin MIC in presence of SIC of the compound (1 μg/ml) ([3]; isolate SA18, experiment I): <0.03 µg/mL
- Oxacillin MIC in presence of SIC of the compound (1 μg/ml) ([3]; isolate SA18, experiment II): <0.03 µg/mL
